{"source": "paper PMC12406685", "about": "“Thiazole substitution of a labile amide bond—a new option toward antiplasmodial pantothenamide-mimics” (Antimicrobial Agents and Chemotherapy, 2025)"}
{"tested_on": "intraerythrocytic P. falciparum", "assay": "not given", "conditions": "absence of pantetheinases; read-out: IC50 in the absence of pantetheinases; cited from earlier work", "units": {"IC50": "µM"}}
{"molecule": "CCCCCNC(=O)CCNC(=O)[C@H](O)C(C)(C)CO", "note": "[Compound N5-Pan]", "IC50": "2 ± 0.5"}
{"tested_on": "intraerythrocytic P. falciparum", "assay": "not given", "conditions": "in the presence of pantetheinases; read-out: IC50 against intraerythrocytic P. falciparum; cited from earlier work", "units": {"IC50": "µM"}}
{"molecule": "CCCCCc1nnc(CNC(=O)[C@H](O)C(C)(C)CO)s1", "note": "[compound v]", "IC50": "0.96 ± 0.05"}
{"molecule": "CCCCCCc1cc(CNC(=O)[C@H](O)C(C)(C)CO)no1", "note": "[iv]", "IC50": "0.16 ± 0.01"}
{"molecule": "CCCCCCn1cc(CNC(=O)[C@H](O)C(C)(C)CO)nn1", "note": "[ii]", "IC50": "0.055 ± 0.005"}
{"molecule": "CCCCCn1cc(CNC(=O)[C@H](O)C(C)(C)CO)nn1", "note": "[compound i]", "IC50": "0.056 ± 0.005"}
{"molecule": "CCCCCc1cc(CNC(=O)[C@H](O)C(C)(C)CO)no1", "note": "[iii]", "IC50": "0.072 ± 0.003"}
{"tested_on": "intraerythrocytic P. falciparum", "assay": "not given", "conditions": "presence of pantetheinases; read-out: IC50 in the presence of pantetheinases; cited from earlier work", "units": {"IC50": "µM"}}
{"molecule": "CCCCCNC(=O)CCNC(=O)[C@H](O)C(C)(C)CO", "note": "[Compound N5-Pan]", "IC50": "124 ± 15"}
{"biological_target": "T1, HsPanK3 (Homo sapiens, UniProt Q9H999)", "T1 sequence (Q9H999 12-368)": "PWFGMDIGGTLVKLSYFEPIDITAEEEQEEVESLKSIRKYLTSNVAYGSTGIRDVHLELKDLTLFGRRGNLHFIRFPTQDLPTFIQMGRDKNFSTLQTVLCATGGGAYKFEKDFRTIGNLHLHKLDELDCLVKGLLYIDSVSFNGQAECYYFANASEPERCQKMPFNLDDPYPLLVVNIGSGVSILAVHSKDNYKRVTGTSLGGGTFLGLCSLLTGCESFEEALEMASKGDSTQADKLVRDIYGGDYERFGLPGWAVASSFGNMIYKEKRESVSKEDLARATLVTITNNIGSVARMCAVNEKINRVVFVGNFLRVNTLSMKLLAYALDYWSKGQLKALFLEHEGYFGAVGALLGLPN", "assay": "not given", "conditions": "read-out: Km for pantothenate of HsPanK3, previous reports; cited from earlier work", "units": {"Km": "µM"}}
{"molecule": "CC(C)(CO)[C@@H](O)C(=O)NCCC(=O)O", "note": "[D-Pantothenate]", "Km": "17 ± 1"}
{"tested_on": "intraerythrocytic P. falciparum", "assay": "In vitro parasite proliferation assay (SYBR Safe-based fluorescence)", "type": "cell-based, Plasmodium falciparum (3D7 strain)", "conditions": "Plasmodium falciparum; intraerythrocytic stage, RPMI-1640 containing 1 µM pantothenate, 96 h; mean ± SEM of three experiments; read-out: IC50 (µM) against Pf at 1 µM Pan", "protocol": "Culturing of intraerythrocytic stage P. falciparum parasites (3D7 strain) was carried out using a method adapted from Trager and Jensen ([97]) and Allen and Kirk ([98]). Parasites were maintained within human, male or female, erythrocytes (typically Group O+, Rh+, 4% hematocrit) in RPMI-1640 medium (Thermo Fisher Scientific, catalogue number 72400120) supplemented with 25 mM HEPES, 11 mM glucose, 200 μM hypoxanthine, 24 μg/mL gentamicin and 6 g/L Albumax II on a horizontally rotating shaking incubator (New Brunswick Innova 42/[…]) at 37°C under an atmosphere of 96% nitrogen, 3% carbon dioxide, and 1% oxygen. To evaluate the effect of each compound on the in vitro proliferation of P. falciparum parasites, a SYBR Safe-based fluorescence assay was used as previously described ([32]). All pantothenamide-mimics tested were initially dissolved to a concentration of 200 mM in DMSO. The final DMSO concentration in the assay never exceeded 0.1% (vol/vol). Assays were performed using the same medium used to culture the parasites. […] Assays were set up with synchronous ring-stage P. falciparum-infected erythrocytes in 96-well microtiter plates. Parasites were synchronized using 5% (wt/vol) sorbitol ([100]). […] P. falciparum-infected erythrocytes incubated in the presence of 0.5 μM chloroquine were used as a non-proliferation control, and those incubated in the absence of compounds and chloroquine served as a 100% parasite proliferation control. To minimize “edge effects” ([101], [102]), the outermost rows and columns of the microtiter plates were not used in the proliferation assays and were filled with 200 μL of medium. The plates were then incubated at 37°C for 96 h under a low-oxygen atmosphere. At the end of the incubation, plates were frozen at -80°C to lyse the cells. […] The fluorescence in the non-proliferation control wells was subtracted from the fluorescence readings in the other wells prior to further analysis. Parasite proliferation, calculated as a percentage of the fluorescence measured in the test wells relative to the fluorescence measured in the 100% parasite proliferation control wells, was then plotted against the logarithm of the compound concentration. […] IC50 values (determined from the sigmoidal curves) were averaged from three independent experiments.", "units": {"IC50": "µM"}}
{"molecule": "CCCCc1ncc(CNC(=O)[C@H](O)C(C)(C)CO)s1", "note": "[Compound 3a]", "IC50": "11 ± 1"}
{"molecule": "CC(C)(CO)[C@@H](O)C(=O)NCc1cnc(-c2cccc(C(F)(F)F)c2)s1", "note": "[Compound 3j]", "IC50": "11 ± 1"}
{"molecule": "CCCCCc1nc(CNC(=O)[C@H](O)C(C)(C)CO)cs1", "note": "[Compound 2a]", "IC50": "5.6 ± 0.2"}
{"molecule": "CCCCCc1ncc(CNC(=O)[C@H](O)C(C)(C)CO)s1", "note": "[Compound 3b]", "IC50": "12 ± 1"}
{"molecule": "CC(C)(CO)[C@@H](O)C(=O)NCc1cnc(-c2ccc(Cl)cc2)s1", "note": "[Compound 3h]", "IC50": "44 ± 4"}
{"molecule": "CCCCCCc1csc(CNC(=O)[C@H](O)C(C)(C)CO)n1", "note": "[Compound 1d]", "IC50": "4.3 ± 0.4"}
{"molecule": "CCCCCCc1nc(CNC(=O)[C@H](O)C(C)(C)CO)cs1", "note": "[Compound 2b]", "IC50": "5.2 ± 0.6"}
{"molecule": "CC(C)CCc1csc(CNC(=O)[C@H](O)C(C)(C)CO)n1", "note": "[Compound 1b]", "IC50": "2.9 ± 0.2"}
{"molecule": "CC(C)(CO)[C@@H](O)C(=O)NCc1csc(-c2ccc(C(F)(F)F)cc2)n1", "note": "[Compound 2g]", "IC50": "57 ± 2"}
{"molecule": "CC(C)(CO)[C@@H](O)C(=O)NCc1cnc(-c2ccc(C(F)(F)F)cc2)s1", "note": "[Compound 3i]", "IC50": "46 ± 6"}
{"molecule": "CC(C)(CO)[C@@H](O)C(=O)NCc1cnc(-c2ccc(F)cc2)s1", "note": "[Compound 3g]", "IC50": "14 ± 2"}
{"molecule": "CC(C)(CO)[C@@H](O)C(=O)NCc1csc(Cc2ccc3ccccc3c2)n1", "note": "[Compound 2d]", "IC50": "6.5 ± 0.1"}
{"molecule": "CC(C)(CO)[C@@H](O)C(=O)NCc1cnc(CCc2ccccc2)s1", "note": "[Compound 3e]", "IC50": "44 ± 1"}
{"molecule": "CCCCCCc1ncc(CNC(=O)[C@H](O)C(C)(C)CO)s1", "note": "[Compound 3c]", "IC50": "35 ± 2"}
{"molecule": "CC(C)(CO)[C@@H](O)C(=O)NCc1csc(-c2ccc(Cl)cc2)n1", "note": "[Compound 2f]", "IC50": "3.1 ± 0.3"}
{"molecule": "CC(C)(CO)[C@@H](O)C(=O)NCc1csc(-c2cccc(C(F)(F)F)c2)n1", "note": "[Compound 2h]", "IC50": "21 ± 1"}
{"molecule": "CC(C)(CO)[C@@H](O)C(=O)NCc1cnc(Cc2ccccc2)s1", "note": "[Compound 3d]", "IC50": "16 ± 1"}
{"tested_on": "human hepatoblastoma cells (HepG2)", "assay": "In vitro HepG2 proliferation assay (Incucyte confluency)", "type": "cell-based", "conditions": "10 µM", "protocol": "(§1) HFF cells were maintained in vitro in DMEM supplemented with 10% (vol/vol) newborn calf serum, 50 units/mL penicillin, 50 µg/mL streptomycin, 10 µg/mL gentamicin, 0.2 mM L-glutamine, and 0.25 µg/mL amphotericin B, as previously described ([99]). HepG2 cells were maintained in RPMI-1640 medium (Thermo Fisher Scientific, catalogue number 72400120) supplemented with 10% (vol/vol) fetal bovine serum, 50 units/mL penicillin, and 50 µg/mL streptomycin.\nIn vitro HepG2 proliferation assays were performed similarly to the HFF proliferation assays with modifications. Confluent HepG2 cells were harvested by treatment with 1 × trypsin–EDTA and diluted in RPMI-1640 supplemented with 10% (vol/vol) fetal bovine serum. Assays were set up in 96-well microtiter plates with 20,000 cells per well. Puromycin (10 µM) was used as a non-proliferation control, and 0.1% (vol/vol) DMSO served as a 100% proliferation control. The plates were incubated at 37°C in a CO2 incubator for 72 h, and the Incucyte Live-Cell Analysis System (Essen BioScience) was used to capture cellular changes and assess cell growth in each well over time as described above for the HFF proliferation assays. The bottom of the curve was constrained to 0 when fitting for HepG2 proliferation assays using GraphPad Prism."}
{"molecule": "COc1ccc(C[C@H](N)C(=O)N[C@H]2[C@@H](O)[C@H](n3cnc4c(N(C)C)ncnc43)O[C@@H]2CO)cc1", "note": "[puromycin, reference compound]", "Effect on proliferation of HepG2 cells (positive control)": "completely inhibited"}
{"tested_on": "human foreskin fibroblasts (HFF)", "assay": "In vitro HFF proliferation assay (Incucyte confluency)", "type": "cell-based", "conditions": "10 µM", "protocol": "as §1\nIn vitro HFF proliferation assays were performed as previously described by Howieson et al. ([32]), with modifications. Confluent HFF cells (in a 75 cm^2 flask) were harvested by treatment with 1 × trypsin–EDTA (0.25% [wt/vol] trypsin +0.2 g/L EDTA) and diluted in 21 mL of DMEM supplemented with 10% [vol/vol] newborn calf serum ([32]). Assays were set up in 96-well microtiter plates in a similar way to that described for the antiplasmodial activity assay. Cycloheximide (10 µM) was used as a non-proliferation control, and 0.1% (vol/vol) DMSO served as a 100% proliferation control. The plates were incubated at 37°C in a CO2 incubator for 96 h, and the Incucyte Live-Cell Analysis System (Essen BioScience) was used to capture cellular changes and assess cell growth in each well over time. Each well was scanned to capture bright field images, and confluency was assessed at the end of the 96 h incubation, which was then used to evaluate the effect of each compound on the proliferation of HFF cells by comparing it to the 100% proliferation control. The bottom of the curve was constrained to 0 when fitting for HFF proliferation assays using GraphPad Prism."}
{"molecule": "C[C@@H]1C[C@@H]([C@H](O)CC2CC(=O)NC(=O)C2)C(=O)[C@@H](C)C1", "note": "[Cycloheximide, reference compound]", "Effect on proliferation of HFF cells (positive control)": "completely inhibited the proliferation"}
{"tested_on": "PfPanK", "assay": "not given", "set-up": "method as in PMID 29614109, PMID 11278793, PMID 24333332", "conditions": "mean ± SEM; read-out: Km for pantothenate of PfPanK in parasite lysates; cited from earlier work", "units": {"Km": "µM"}}
{"molecule": "CC(C)(CO)[C@@H](O)C(=O)NCCC(=O)O", "note": "[D-Pantothenate]", "Km": "0.27 ± 0.095"}
